Data taken from US4983328A, “N-(4-(3-aminopropyl)aminobutyl)-2-(ω-gua nidino-fatty-acid-amido(-2-substituted-ethanamide, salt thereof, and process for preparation thereof” (Bristol-Myers Company, priority 1981, dated 1991).
≈ marks a conversion by molar mass, not a printed value.

What was measured:
[1] = acute toxicity in mice (single intraperitoneal administration); settings: mouse, in vivo, ip; mice, single i.p.; read-out: LD50 (median lethal dose on single administration)
Procedure: (§1) In Table 8 median lethal doses (LD50) of typical compounds of this invention are shown, measured in mice upon single intraperitoneal administration, as well as maximum tolerated doses in terms of total dose when a fixed amount per unit body weight was administered intraperitoneally to mice once a day for 6 consecutive days.
*Median lethal dose on single administration.

[2] = test system: mouse leukemia L-1210 cells; assay: growth inhibitory activity to cancer cells in vitro (L-1210, 48 hours); type: cell-based; settings: for inhibition at 2.5 µg/mL: L1210, 2.5 mcg/ml; for inhibition at 5 µg/mL: L1210, 5 mcg/ml; for inhibition at 10 µg/mL: L1210, 10 mcg/ml; for inhibition at 20 µg/mL: L1210, 20 mcg/ml; for IC50: L1210, L-1210 cells, read-out: 50% inhibitory concentration; for inhibition at 40 µg/mL: L1210, 40 mcg/ml
Procedure: DBA/2 mice were implanted with 10^5 mouse leukemia L-1210 cells. The ascites collected asceptically from the mice after 4 days of feeding was washed three times with physiological saline to obtain L-1210 cells, which was then suspended in RPMI 1640 culture medium [G. E. Moore, Journal of the American Medical Association, Vol. 199, 519 (1967); H. J. Morton, In Vitro, Vol. 6, 89 (1970)] to which 10% fetal calf serum and 5 μM 2-mercaptoethanol had been added, and the resulting suspension was diluted to 5×10^4 L-1210 cells per 0.9 ml. A microplate carrying 0.9 ml of the cell suspension and 0.1 ml of the culture medium containing the sample being tested was kept in a carbon dioxide incubator at 37° C. After 48 hours of cultivation, the number of cells was measured by means of a Coulter Counter (Coulter Electronics, Inc., U.S.A.) to obtain the growth inhibition (%)=(1--T/C )×100=[1-(number of grown cells in medium containing sample/(number of grown cells in control medium)]×100. The 50% growth inhibitory concentration was calculated from the values of growth inhibition at varied sample concentrations. The results of tests on typical compounds of this invention for the growth inhibition of L-1210 cells were as shown in Table 6.

[3] = test system: mouse leukemia L-1210; assay: therapeutic effect on implanted cancer in mice (L-1210, survival over 30 days); type: in vivo, mouse (BDF1); settings: L1210, ip, 720 h, 6 days; for responders at 1.56 mg/kg / response vs control in vivo at 1.56 mg/kg: 1.56 mg/kg/day i.p.; for responders at 3.13 mg/kg / response vs control in vivo at 3.13 mg/kg: 3.13 mg/kg/day i.p.; for responders at 6.25 mg/kg / response vs control in vivo at 6.25 mg/kg: 6.25 mg/kg/day i.p.; for responders at 12.5 mg/kg / response vs control in vivo at 12.5 mg/kg: 12.5 mg/kg/day i.p.; for responders at 25 mg/kg / response vs control in vivo at 25 mg/kg: 25 mg/kg/day i.p.; for responders at 50 mg/kg / response vs control in vivo at 50 mg/kg: 50 mg/kg/day i.p.
Excerpt: BDF1 strain male mice (5 weeks old) were each inoculated intraperitoneally with 10^5 mouse leukemia L-1210 cells and treated once a day by intraperitoneal injection with a test compound dissolved in physiological saline for 6 consecutive days beginning from the day of inoculation. The mice were then observed for 30 days to determine the rate of prolongation of survival period=100×T/C=100×(average survival days of treated group)/(average survival days of control group).

[4] = cumulative toxicity in mice (maximum tolerated dose, once a day for 6 consecutive days); settings: mouse, in vivo, ip, i.p. once a day for 6 consecutive days, total dose, read-out: Maximum Tolerated Dose (total dose not causing death)
Procedure: as §1
**Maximum value of the total dose not causing death when a fixed amount
per unit body weight is administered to mice once a day for 6 consecutive

[5] = read-out: Growth inhibition (%), (1-T/C) × 100
[6] = read-out: Number of mice survived for 30 days (converted)
[7] = read-out: Prolongation of survival period (%), T/C × 100

| SMILES | LD50 [1] [mg/kg] | inhibition at 2.5 µg/mL [2, 5] [%] | inhibition at 5 µg/mL [2, 5] [%] | inhibition at 10 µg/mL [2, 5] [%] | inhibition at 20 µg/mL [2, 5] [%] | IC50 [2] [µg/mL] | responders at 1.56 mg/kg [3, 6] [%] | response vs control in vivo at 1.56 mg/kg [3, 7] [%] | responders at 3.13 mg/kg [3, 6] [%] | response vs control in vivo at 3.13 mg/kg [3, 7] [%] | responders at 6.25 mg/kg [3, 6] [%] | response vs control in vivo at 6.25 mg/kg [3, 7] [%] | responders at 12.5 mg/kg [3, 6] [%] | response vs control in vivo at 12.5 mg/kg [3, 7] [%] | responders at 25 mg/kg [3, 6] [%] | response vs control in vivo at 25 mg/kg [3, 7] [%] | responders at 50 mg/kg [3, 6] [%] | response vs control in vivo at 50 mg/kg [3, 7] [%] | MTD [4] [mg/kg] | inhibition at 40 µg/mL [2, 5] [%] | also measured |
| --- | --- | --- | --- | --- | --- | --- | --- | --- | --- | --- | --- | --- | --- | --- | --- | --- | --- | --- | --- | --- | --- |
| N=C(N)NCCCCCCCCC(=O)NC(O)C(=O)NCCCCNCCCN (centres unmarked) [Compound 6, N-[4-(3-aminopropyl)aminobutyl]-2-(9-guanidinononanamido)-2-hydroxyethanamide] | 12.5 to 25 | 40.3 | 45.5 | 50.3 | 57.5 | 8 (≈ 19.3 µM) | 75 | > 393 | 50 | > 386 | 100 | > 429 | 100 | > 429 | 0 | 0 | 0 | 0 | > 75 |  | inhibition at 1.25 µg/mL ([2]; L1210, 1.25 mcg/ml, read-out: Growth inhibition (%), (1-T/C) × 100): 38%; responders at 0.2 mg/kg ([3]; 0.20 mg/kg/day i.p., read-out: Number of mice survived for 30 days (converted)): 50%; response vs control in vivo at 0.2 mg/kg ([3]; 0.20 mg/kg/day i.p., read-out: Prolongation of survival period (%), T/C × 100): > 354%; responders at 0.39 mg/kg ([3]; 0.39 mg/kg/day i.p., read-out: Number of mice survived for 30 days (converted)): 50%; response vs control in vivo at 0.39 mg/kg ([3]; 0.39 mg/kg/day i.p., read-out: Prolongation of survival period (%), T/C × 100): > 383%; responders at 0.78 mg/kg ([3]; 0.78 mg/kg/day i.p., read-out: Number of mice survived for 30 days (converted)): 100%; response vs control in vivo at 0.78 mg/kg ([3]; 0.78 mg/kg/day i.p., read-out: Prolongation of survival period (%), T/C × 100): > 429% |
| N=C(N)NCCCCCCCC(=O)NC(O)C(=O)NCCCCNCCCN (centres unmarked) [Compound 5, N-[4-(3-aminopropyl)aminobutyl]-2-(8-guanidinooctanamido)-2-hydroxyethanamide] | 25 to 50 | 24.9 | 29.1 | 40 | 54.2 | 18 (≈ 44.8 µM) | 0 | 104 | 0 | 118 | 0 | 125 | 0 | 181 | 0 | 306 | 0 | 0 | > 150 | 66 | inhibition at 80 µg/mL ([2]; L1210, 80 mcg/ml, read-out: Growth inhibition (%), (1-T/C) × 100): 88.5%; inhibition at 160 µg/mL ([2]; L1210, 160 mcg/ml, read-out: Growth inhibition (%), (1-T/C) × 100): 96.8% |
| COC(NC(=O)C[C@@H](O)CCCCNC(=N)N)C(=O)NCCCCNCCCN (some centres unmarked) [Compound 22, N-[4-(3-aminopropyl)aminobutyl]-2-(7-guanidino-3-hydroxyheptanamido)-2-methoxyethanamide] | 25 to 50 | 60.8 | 82.6 | 94.5 | 96.9 | 1.8 (≈ 4.31 µM) | 0 | 117 | 0 | 163 | 50 | > 332 | 62.5 | > 380 | 75 | > 414 | 0 | 7 | > 150 | 98.3 |  |
